How the values were obtained:
Assay type in all cases: cell-based, mouse
[1] = system: α7 integrin (LacZ reporter in α7+/LacZ myotubes); experiment: Myotube α7 integrin FDG assay (Burkin assay in myotubes, 96-well); details: for Burkin Assay in Myotubes, value relative to DMSO: SU9516 analogs, 96-well, N=3-6
[2] = system: β-galactosidase in CMV-LacZ C2C12 myotubes; experiment: CMV-LacZ secondary screen in C2C12 myotubes (β-Gal stabilizing assay); details: for CMV-LACZ in Myotubes, value relative to DMSO: SU9516 analogs, C2C12 CMV-LacZ, N=2; for CMV-LACZ in Myotubes, signal relative to DMSO: C2C12 CMV-LacZ myotubes, fold relative to DMSO
In short: (§1)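 CMV-LacZ C2C12 line (clonal, FDG-screened); myoblasts/myotubes dosed 0.5–40 μM (0.5, 1, 5, 10, 20, 40 μM); n=2 per point; β-gal stabilization read-out.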

[3] = system: α7 integrin (LacZ reporter in α7βgal+/− myoblasts); experiment: Myoblast α7+/LacZ integrin FDG assay (Burkin assay in myoblasts, 96-well); details: 96-well; for Burkin Assay in Myoblasts, value relative to DMSO: SU9516 analogs, N=3-6; for Burkin Assay in Myoblasts, signal relative to DMSO: α7+/LacZ myoblasts
[4] = system: β-galactosidase in CMV-LacZ C2C12 myoblasts; experiment: CMV-LacZ secondary screen in C2C12 myoblasts (β-Gal stabilizing assay); details: for CMV-LACZ in Myoblasts, value relative to DMSO: SU9516 analogs, C2C12 CMV-LacZ, N=2; for CMV-LACZ in Myoblasts (β-galactosidase activity relative to DMSO): CMV-LacZ C2C12 myoblasts
In short: as §1

Cc1ccccc1/C=C1\C(=O)Nc2ccc(F)cc21 [MLS001197838-01]
Burkin Assay in Myotubes, value relative to DMSO ([1]; 0.5 uM): 1.009 | Burkin Assay in Myotubes, value relative to DMSO ([1]; 1 uM): 0.981 | Burkin Assay in Myotubes, value relative to DMSO ([1]; 5 uM): 1.004 | Burkin Assay in Myotubes, value relative to DMSO ([1]; 10 uM): 1.091 | Burkin Assay in Myotubes, value relative to DMSO ([1]; 20 uM): 0.8699 | Burkin Assay in Myotubes, value relative to DMSO ([1]; 40 uM): 0.9981 | CMV-LACZ in Myotubes, value relative to DMSO ([2]; 0.5 uM): 1.0305 | CMV-LACZ in Myotubes, value relative to DMSO ([2]; 1 uM): 1.0038 | CMV-LACZ in Myotubes, value relative to DMSO ([2]; 5 uM): 0.9701 | CMV-LACZ in Myotubes, value relative to DMSO ([2]; 10 uM): 1.1637 | CMV-LACZ in Myotubes, value relative to DMSO ([2]; 20 uM): 0.8547 | CMV-LACZ in Myotubes, value relative to DMSO ([2]; 40 uM): 1.0063 | Burkin Assay in Myoblasts, value relative to DMSO ([3]; 0.5 uM): 1.256 | Burkin Assay in Myoblasts, value relative to DMSO ([3]; 1 uM): 1.198 | Burkin Assay in Myoblasts, value relative to DMSO ([3]; 5 uM): 1.053 | Burkin Assay in Myoblasts, value relative to DMSO ([3]; 10 uM): 1.048 | Burkin Assay in Myoblasts, value relative to DMSO ([3]; 20 uM): 0.8911 | Burkin Assay in Myoblasts, value relative to DMSO ([3]; 40 uM): 0.8648 | CMV-LACZ in Myoblasts, value relative to DMSO ([4]; 0.5 uM): 0.7904 | CMV-LACZ in Myoblasts, value relative to DMSO ([4]; 1 uM): 0.9954 | CMV-LACZ in Myoblasts, value relative to DMSO ([4]; 5 uM): 1.0010 | CMV-LACZ in Myoblasts, value relative to DMSO ([4]; 10 uM): 1.1118 | CMV-LACZ in Myoblasts, value relative to DMSO ([4]; 20 uM): 1.1615 | CMV-LACZ in Myoblasts, value relative to DMSO ([4]; 40 uM): 0.9437

O=C1Nc2ccccc2/C1=C\c1cccn1-c1ccc(OC(F)(F)F)cc1 [MLS000546982-01]
Burkin Assay in Myotubes, value relative to DMSO ([1]; 0.5 uM): 1.048 | Burkin Assay in Myotubes, value relative to DMSO ([1]; 1 uM): 1.038 | Burkin Assay in Myotubes, value relative to DMSO ([1]; 5 uM): 1.145 | Burkin Assay in Myotubes, value relative to DMSO ([1]; 10 uM): 0.9962 | Burkin Assay in Myotubes, value relative to DMSO ([1]; 20 uM): 0.8556 | Burkin Assay in Myotubes, value relative to DMSO ([1]; 40 uM): 0.7111 | CMV-LACZ in Myotubes, value relative to DMSO ([2]; 0.5 uM): 1.0438 | CMV-LACZ in Myotubes, value relative to DMSO ([2]; 1 uM): 0.8467 | CMV-LACZ in Myotubes, value relative to DMSO ([2]; 5 uM): 1.0159 | CMV-LACZ in Myotubes, value relative to DMSO ([2]; 10 uM): 1.1265 | CMV-LACZ in Myotubes, value relative to DMSO ([2]; 20 uM): 1.0160 | CMV-LACZ in Myotubes, value relative to DMSO ([2]; 40 uM): 1.3290 | Burkin Assay in Myoblasts, value relative to DMSO ([3]; 0.5 uM): 0.8799 | Burkin Assay in Myoblasts, value relative to DMSO ([3]; 1 uM): 1.155 | Burkin Assay in Myoblasts, value relative to DMSO ([3]; 5 uM): 1.272 | Burkin Assay in Myoblasts, value relative to DMSO ([3]; 10 uM): 1.078 | Burkin Assay in Myoblasts, value relative to DMSO ([3]; 20 uM): 1.053 | Burkin Assay in Myoblasts, value relative to DMSO ([3]; 40 uM): 0.8883 | CMV-LACZ in Myoblasts, value relative to DMSO ([4]; 0.5 uM): 1.0877 | CMV-LACZ in Myoblasts, value relative to DMSO ([4]; 1 uM): 1.2640 | CMV-LACZ in Myoblasts, value relative to DMSO ([4]; 5 uM): 0.9273 | CMV-LACZ in Myoblasts, value relative to DMSO ([4]; 10 uM): 1.0785 | CMV-LACZ in Myoblasts, value relative to DMSO ([4]; 20 uM): 0.9512 | CMV-LACZ in Myoblasts, value relative to DMSO ([4]; 40 uM): 1.3937

N#Cc1ccc(Sc2nc3ccccc3[nH]2)cc1C#N [MLS000110418-01]
Burkin Assay in Myotubes, α7 integrin LacZ reporter signal relative to DMSO ([1]; 0.5 uM): 1.073 | Burkin Assay in Myotubes, α7 integrin LacZ reporter signal relative to DMSO ([1]; 1 uM): 1.0975 | Burkin Assay in Myotubes, α7 integrin LacZ reporter signal relative to DMSO ([1]; 5 uM): 1.017 | Burkin Assay in Myotubes, α7 integrin LacZ reporter signal relative to DMSO ([1]; 10 uM): 0.943 | Burkin Assay in Myotubes, α7 integrin LacZ reporter signal relative to DMSO ([1]; 20 uM): 0.9939 | Burkin Assay in Myotubes, α7 integrin LacZ reporter signal relative to DMSO ([1]; 40 uM): 0.8855 | CMV-LACZ in Myotubes, signal relative to DMSO ([2]; 0.5 uM): 1.0333 | CMV-LACZ in Myotubes, signal relative to DMSO ([2]; 1 uM): 0.9000 | CMV-LACZ in Myotubes, signal relative to DMSO ([2]; 5 uM): 0.9617 | CMV-LACZ in Myotubes, signal relative to DMSO ([2]; 10 uM): 0.9599 | CMV-LACZ in Myotubes, signal relative to DMSO ([2]; 20 uM): 1.0459 | CMV-LACZ in Myotubes, signal relative to DMSO ([2]; 40 uM): 1.3647 | Burkin Assay in Myoblasts, signal relative to DMSO ([3]; 0.5 uM): 1.3095 | Burkin Assay in Myoblasts, signal relative to DMSO ([3]; 1 uM): 1.079 | Burkin Assay in Myoblasts, signal relative to DMSO ([3]; 5 uM): 1.249 | Burkin Assay in Myoblasts, signal relative to DMSO ([3]; 10 uM): 1.12 | Burkin Assay in Myoblasts, signal relative to DMSO ([3]; 20 uM): 1.004 | Burkin Assay in Myoblasts, signal relative to DMSO ([3]; 40 uM): 0.8889 | CMV-LACZ in Myoblasts (β-galactosidase activity relative to DMSO) ([4]; 0.5 uM): 0.8871 | CMV-LACZ in Myoblasts (β-galactosidase activity relative to DMSO) ([4]; 1 uM): 0.9989 | CMV-LACZ in Myoblasts (β-galactosidase activity relative to DMSO) ([4]; 5 uM): 1.0913 | CMV-LACZ in Myoblasts (β-galactosidase activity relative to DMSO) ([4]; 10 uM): 0.9455 | CMV-LACZ in Myoblasts (β-galactosidase activity relative to DMSO) ([4]; 20 uM): 0.8926 | CMV-LACZ in Myoblasts (β-galactosidase activity relative to DMSO) ([4]; 40 uM): 0.7141

O=C(CNC(=O)c1cccc(F)c1)N/N=C/c1cc(Br)ccc1OCc1ccccc1 [MLS000591667-01]
Burkin Assay in Myotubes, α7 integrin LacZ reporter signal relative to DMSO ([1]; 0.5 uM): 1.005 | Burkin Assay in Myotubes, α7 integrin LacZ reporter signal relative to DMSO ([1]; 1 uM): 1.1434 | Burkin Assay in Myotubes, α7 integrin LacZ reporter signal relative to DMSO ([1]; 5 uM): 1.072 | Burkin Assay in Myotubes, α7 integrin LacZ reporter signal relative to DMSO ([1]; 10 uM): 0.9986 | Burkin Assay in Myotubes, α7 integrin LacZ reporter signal relative to DMSO ([1]; 20 uM): 0.6781 | Burkin Assay in Myotubes, α7 integrin LacZ reporter signal relative to DMSO ([1]; 40 uM): 0.6965 | CMV-LACZ in Myotubes, signal relative to DMSO ([2]; 0.5 uM): 0.8600 | CMV-LACZ in Myotubes, signal relative to DMSO ([2]; 1 uM): 1.0726 | CMV-LACZ in Myotubes, signal relative to DMSO ([2]; 5 uM): 1.0824 | CMV-LACZ in Myotubes, signal relative to DMSO ([2]; 10 uM): 1.0152 | CMV-LACZ in Myotubes, signal relative to DMSO ([2]; 20 uM): 0.8929 | CMV-LACZ in Myotubes, signal relative to DMSO ([2]; 40 uM): 0.8800 | Burkin Assay in Myoblasts, signal relative to DMSO ([3]; 0.5 uM): 0.9901 | Burkin Assay in Myoblasts, signal relative to DMSO ([3]; 1 uM): 1.034 | Burkin Assay in Myoblasts, signal relative to DMSO ([3]; 5 uM): 1.132 | Burkin Assay in Myoblasts, signal relative to DMSO ([3]; 10 uM): 1.088 | Burkin Assay in Myoblasts, signal relative to DMSO ([3]; 20 uM): 0.8623 | Burkin Assay in Myoblasts, signal relative to DMSO ([3]; 40 uM): 1.1351 | CMV-LACZ in Myoblasts (β-galactosidase activity relative to DMSO) ([4]; 0.5 uM): 0.9491 | CMV-LACZ in Myoblasts (β-galactosidase activity relative to DMSO) ([4]; 1 uM): 0.7850 | CMV-LACZ in Myoblasts (β-galactosidase activity relative to DMSO) ([4]; 5 uM): 1.1587 | CMV-LACZ in Myoblasts (β-galactosidase activity relative to DMSO) ([4]; 10 uM): 1.1592 | CMV-LACZ in Myoblasts (β-galactosidase activity relative to DMSO) ([4]; 20 uM): 0.8030 | CMV-LACZ in Myoblasts (β-galactosidase activity relative to DMSO) ([4]; 40 uM): 1.0593

O=c1[nH]c2ccccc2nc1-c1c[nH]c2ccccc12 [MLS001181936-01]
Burkin Assay in Myotubes, α7 integrin LacZ reporter signal relative to DMSO ([1]; 0.5 uM): 0.9197 | Burkin Assay in Myotubes, α7 integrin LacZ reporter signal relative to DMSO ([1]; 1 uM): 0.7633 | Burkin Assay in Myotubes, α7 integrin LacZ reporter signal relative to DMSO ([1]; 5 uM): 0.9856 | Burkin Assay in Myotubes, α7 integrin LacZ reporter signal relative to DMSO ([1]; 10 uM): 1.024 | Burkin Assay in Myotubes, α7 integrin LacZ reporter signal relative to DMSO ([1]; 20 uM): 0.5868 | Burkin Assay in Myotubes, α7 integrin LacZ reporter signal relative to DMSO ([1]; 40 uM): 0.7387 | CMV-LACZ in Myotubes, signal relative to DMSO ([2]; 0.5 uM): 1.0705 | CMV-LACZ in Myotubes, signal relative to DMSO ([2]; 1 uM): 0.9886 | CMV-LACZ in Myotubes, signal relative to DMSO ([2]; 5 uM): 0.9246 | CMV-LACZ in Myotubes, signal relative to DMSO ([2]; 10 uM): 1.0274 | CMV-LACZ in Myotubes, signal relative to DMSO ([2]; 20 uM): 0.9020 | CMV-LACZ in Myotubes, signal relative to DMSO ([2]; 40 uM): 1.0280 | Burkin Assay in Myoblasts, signal relative to DMSO ([3]; 0.5 uM): 0.8443 | Burkin Assay in Myoblasts, signal relative to DMSO ([3]; 1 uM): 0.7562 | Burkin Assay in Myoblasts, signal relative to DMSO ([3]; 5 uM): 0.8573 | Burkin Assay in Myoblasts, signal relative to DMSO ([3]; 10 uM): 0.8219 | Burkin Assay in Myoblasts, signal relative to DMSO ([3]; 20 uM): 0.51 | Burkin Assay in Myoblasts, signal relative to DMSO ([3]; 40 uM): 0.3285 | CMV-LACZ in Myoblasts (β-galactosidase activity relative to DMSO) ([4]; 0.5 uM): 0.8487 | CMV-LACZ in Myoblasts (β-galactosidase activity relative to DMSO) ([4]; 1 uM): 0.9273 | CMV-LACZ in Myoblasts (β-galactosidase activity relative to DMSO) ([4]; 5 uM): 0.7292 | CMV-LACZ in Myoblasts (β-galactosidase activity relative to DMSO) ([4]; 10 uM): 0.8296 | CMV-LACZ in Myoblasts (β-galactosidase activity relative to DMSO) ([4]; 20 uM): 0.7863 | CMV-LACZ in Myoblasts (β-galactosidase activity relative to DMSO) ([4]; 40 uM): 0.6130

Reference: patent US9980943B2, “Methods of treating muscular dystrophy” (BOARD OF REGENTS OF THE NEVADA SYSTEM OF HIGHER EDUCATION, …, priority 2013, dated 2018)
